{"source": "patent US20230293539A1", "about": "“MLL1-WDR5 PROTEIN-PROTEIN INTERACTION INHIBITOR COMPOUNDS AND USES THEREOF” (HUYABIO International, LLC, priority 2022, published 2023)", "experiment": "PK profile of HBI-2375 in plasma and brain in C57BL/6J mice", "assay_type": "in vivo", "conditions": "for AUClast Ratio, group 3 vs 2 / Cmax Ratio, group 3 vs 2: repeat PO vs PO 80 mg/kg; for Cmax at 7 day / Tmax at 7 day / Cmax / MRT last / Tmax: mouse, C57BL/6J mice; for Cmax at 7 day / Tmax at 7 day: 7-day repeat PO 80 mg/kg", "experimental": "EXAMPLE 4: PK profile of compound of Formula (IIIb) (HBI-2375, HYBI-84) in plasma and brain in C57BL/6J mice: This study was conducted in accordance with the Study Protocol and Pharmaron (Ningbo) TSP's Standard Operating Procedures (SOPs) following all regulatory protocols. This study was conducted under non-GLP environment.\nFollowing single oral gavage administration of HBI-2375 at 40 mg/kg, 80 mg/kg, and 7-day repeat oral gavage administration at 80 mg/kg in C57BL/6J mice, concentrations of HBI-2375 in plasma and brain were determined by LC-MS/MS methods. […] The maximal concentrations of HBI-2375 in brain were all observed at 4 hr post-dose. […] The exposure of HBI-2375 in plasma and brain of females were closed to that of males, the ratios were 0.989-1.22 for plasma, and 1.10-1.34 for brain.", "key": {"[1]": {"conditions": "mice, repeat PO 80 mg/kg, brain"}, "[2]": {"conditions": "mice, repeat PO 80 mg/kg, plasma"}, "[3]": {"conditions": "mice, single PO 40 mg/kg, brain"}, "[4]": {"conditions": "mice, single PO 40 mg/kg, plasma"}, "[5]": {"conditions": "mice, single PO 80 mg/kg, brain"}, "[6]": {"conditions": "mice, single PO 80 mg/kg, plasma"}, "[7]": {"conditions": "single PO 40 mg/kg, brain, female"}, "[8]": {"conditions": "single PO 40 mg/kg, brain, male"}, "[9]": {"conditions": "single PO 40 mg/kg, plasma, female"}, "[10]": {"conditions": "single PO 40 mg/kg, plasma, male"}, "[11]": {"conditions": "single PO 80 mg/kg, brain, female"}, "[12]": {"conditions": "single PO 80 mg/kg, brain, male"}, "[13]": {"conditions": "single PO 80 mg/kg, plasma, female"}, "[14]": {"conditions": "single PO 80 mg/kg, plasma, male"}}}
{"compound": "Cc1c(F)c(N)cc(C(=O)Nc2cc(-n3cc(C(=O)N4CCN(C)CC4)nn3)c(F)cc2N2C[C@@H](C)N(C)[C@@H](C)C2)c1Cl", "note": "[HYBI-084, 5-amino-2-chloro-4-fluoro-N-(4-fluoro-5-(4-(4-methylpiperazine-1-carbonyl)-1H-1,2,3-triazol-1-yl)-2-((3S,5R)-3,4,5-trimethylpiperazin-1-yl)phenyl)-3-methylbenzamide]", "values": [{"measurement": "Cmax ratios females/males", "setting": "mice, plasma, all three dose groups", "value": "0.967-1.27"}, {"measurement": "AUClast ratios 7-day repeat vs single-dose 80 mg/kg", "setting": "mice, plasma, both sexes", "value": "1.04-1.23"}, {"measurement": "AUClast ratios 80 vs 40 mg/kg single dose", "setting": "mice, plasma, both sexes", "value": "2.32-2.41"}, {"measurement": "AUClast Ratio Female/Male", "setting": "[1]", "value": 1.34}, {"measurement": "Cmax Ratio Female/Male", "setting": "[1]", "value": 1.24}, {"measurement": "C24hr/Cmax Ratio (%)", "setting": "mice, repeat PO 80 mg/kg, brain, female", "value": 18.9, "unit": "%"}, {"measurement": "C24hr/Cmax Ratio (%)", "setting": "mice, repeat PO 80 mg/kg, brain, male", "value": 14.4, "unit": "%"}, {"measurement": "AUClast Ratio Female/Male", "setting": "[2]", "value": 1.22}, {"measurement": "Cmax Ratio Female/Male", "setting": "[2]", "value": 1.27}, {"measurement": "C24hr/Cmax Ratio (%)", "setting": "mice, repeat PO 80 mg/kg, plasma, female", "value": 3.94, "unit": "%"}, {"measurement": "C24hr/Cmax Ratio (%)", "setting": "mice, repeat PO 80 mg/kg, plasma, male", "value": 2.68, "unit": "%"}, {"measurement": "AUClast Ratio, group 3 vs 2", "setting": "mice, brain, female", "value": 1.87}, {"measurement": "Cmax Ratio, group 3 vs 2", "setting": "mice, brain, female", "value": 1.60}, {"measurement": "AUClast Ratio, group 3 vs 2", "setting": "mice, brain, male", "value": 1.54}, {"measurement": "Cmax Ratio, group 3 vs 2", "setting": "mice, brain, male", "value": 1.44}, {"measurement": "AUClast Ratio, group 3 vs 2", "setting": "mice, plasma, female", "value": 1.23}, {"measurement": "Cmax Ratio, group 3 vs 2", "setting": "mice, plasma, female", "value": 0.726}, {"measurement": "AUClast Ratio, group 3 vs 2", "setting": "mice, plasma, male", "value": 1.04}, {"measurement": "Cmax Ratio, group 3 vs 2", "setting": "mice, plasma, male", "value": 0.552}, {"measurement": "AUClast Ratio Female/Male", "setting": "[3]", "value": 1.16}, {"measurement": "Cmax Ratio Female/Male", "setting": "[3]", "value": 1.15}, {"measurement": "mean concentration at 24 hr post-dose as % of Cmax", "setting": "mice, single PO 40 mg/kg, brain, both sexes", "value": "10.4-11.1%"}, {"measurement": "C24hr/Cmax Ratio (%)", "setting": "mice, single PO 40 mg/kg, brain, female", "value": 11.1, "unit": "%"}, {"measurement": "C24hr/Cmax Ratio (%)", "setting": "mice, single PO 40 mg/kg, brain, male", "value": 10.4, "unit": "%"}, {"measurement": "AUClast Ratio Female/Male", "setting": "[4]", "value": 0.989}, {"measurement": "Cmax Ratio Female/Male", "setting": "[4]", "value": 0.976}, {"measurement": "mean concentration at 24 hr post-dose as % of Cmax", "setting": "mice, single PO 40 mg/kg, plasma, both sexes", "value": "0.748-1.10%"}, {"measurement": "C24hr/Cmax Ratio (%)", "setting": "mice, single PO 40 mg/kg, plasma, female", "value": 1.10, "unit": "%"}, {"measurement": "C24hr/Cmax Ratio (%)", "setting": "mice, single PO 40 mg/kg, plasma, male", "value": 0.748, "unit": "%"}, {"measurement": "AUClast Ratio Female/Male", "setting": "[5]", "value": 1.10}, {"measurement": "Cmax Ratio Female/Male", "setting": "[5]", "value": 1.11}, {"measurement": "mean concentration at 24 hr post-dose as % of Cmax", "setting": "mice, single PO 80 mg/kg, brain, both sexes", "value": "9.71-11.2%"}, {"measurement": "C24hr/Cmax Ratio (%)", "setting": "mice, single PO 80 mg/kg, brain, female", "value": 9.71, "unit": "%"}, {"measurement": "C24hr/Cmax Ratio (%)", "setting": "mice, single PO 80 mg/kg, brain, male", "value": 11.2, "unit": "%"}, {"measurement": "AUClast Ratio Female/Male", "setting": "[6]", "value": 1.03}, {"measurement": "Cmax Ratio Female/Male", "setting": "[6]", "value": 0.967}, {"measurement": "mean concentration at 24 hr post-dose as % of Cmax", "setting": "mice, single PO 80 mg/kg, plasma, both sexes", "value": "0.671-0.757%"}, {"measurement": "C24hr/Cmax Ratio (%)", "setting": "mice, single PO 80 mg/kg, plasma, female", "value": 0.671, "unit": "%"}, {"measurement": "C24hr/Cmax Ratio (%)", "setting": "mice, single PO 80 mg/kg, plasma, male", "value": 0.757, "unit": "%"}, {"measurement": "in-life observations", "setting": "mice, single PO 40, 80 mg/kg and 7-day repeat PO 80 mg/kg", "value": "no abnormalities were observed"}, {"measurement": "dose proportionality of AUClast and Cmax in plasma and brain", "setting": "mice, single PO 40 and 80 mg/kg", "value": "proportional increase of exposure"}, {"measurement": "Cmax at 7 day", "setting": "brain, female", "value": 892, "unit": "ng/g"}, {"measurement": "Tmax at 7 day", "setting": "brain, female", "value": 4, "unit": "h"}, {"measurement": "Cmax at 7 day", "setting": "brain, male", "value": 722, "unit": "ng/g"}, {"measurement": "Tmax at 7 day", "setting": "brain, male", "value": 4, "unit": "h"}, {"measurement": "Cmax at 7 day", "setting": "plasma, female", "value": 2840, "unit": "ng/mL"}, {"measurement": "Tmax at 7 day", "setting": "plasma, female", "value": 1, "unit": "h"}, {"measurement": "Cmax at 7 day", "setting": "plasma, male", "value": 2230, "unit": "ng/mL"}, {"measurement": "Tmax at 7 day", "setting": "plasma, male", "value": 1, "unit": "h"}, {"measurement": "Cmax", "setting": "[7]", "value": 192, "unit": "ng/g"}, {"measurement": "MRT last", "setting": "[7]", "value": 8.25, "unit": "h"}, {"measurement": "Tmax", "setting": "[7]", "value": 4, "unit": "h"}, {"measurement": "Cmax", "setting": "[8]", "value": 167, "unit": "ng/g"}, {"measurement": "MRT last", "setting": "[8]", "value": 8.05, "unit": "h"}, {"measurement": "Tmax", "setting": "[8]", "value": 4, "unit": "h"}, {"measurement": "Cmax", "setting": "[9]", "value": 1120, "unit": "ng/mL"}, {"measurement": "MRT last", "setting": "[9]", "value": 5.3, "unit": "h"}, {"measurement": "Tmax", "setting": "[9]", "value": 0.5, "unit": "h"}, {"measurement": "Cmax", "setting": "[10]", "value": 1150, "unit": "ng/mL"}, {"measurement": "MRT last", "setting": "[10]", "value": 5.22, "unit": "h"}, {"measurement": "Tmax", "setting": "[10]", "value": 0.5, "unit": "h"}, {"measurement": "Cmax", "setting": "[11]", "value": 556, "unit": "ng/g"}, {"measurement": "MRT last", "setting": "[11]", "value": 8.01, "unit": "h"}, {"measurement": "Tmax", "setting": "[11]", "value": 4, "unit": "h"}, {"measurement": "Cmax", "setting": "[12]", "value": 500, "unit": "ng/g"}, {"measurement": "MRT last", "setting": "[12]", "value": 8.4, "unit": "h"}, {"measurement": "Tmax", "setting": "[12]", "value": 4, "unit": "h"}, {"measurement": "Cmax", "setting": "[13]", "value": 3910, "unit": "ng/mL"}, {"measurement": "MRT last", "setting": "[13]", "value": 4.86, "unit": "h"}, {"measurement": "Tmax", "setting": "[13]", "value": 0.5, "unit": "h"}, {"measurement": "Cmax", "setting": "[14]", "value": 4040, "unit": "ng/mL"}, {"measurement": "MRT last", "setting": "[14]", "value": 5.46, "unit": "h"}, {"measurement": "Tmax", "setting": "[14]", "value": 0.5, "unit": "h"}]}
